From a melting point compilation (Tetko et al.; mined from patent text by program, amines drawn as free bases though some values may be those of a salt)

Row | SMILES | melting point [°C]
1 | Cc1ccccc1NS(=O)(=O)c1ccc(Br)cc1 | 114
2 | CN(C)N=C(CCC(=O)O)c1ccc(-c2ccc(Cl)cc2)cc1 | 158 to 160
3 | N[C@@H](CN1CCC(=C2c3ccccc3CCc3ccccc32)CC1)C(=O)O | 150 to 151
4 | COC(=O)c1cccc(/C=C/c2cccc(Br)c2)c1 | 79 to 84
5 | COC(=O)[C@H]1C[C@H](NC(=O)Oc2ccccc2)c2c(Cl)cc(Cl)cc2N1 (relative stereo) | 159 to 161
6 | Cc1ccc(C2CCN(C(=O)CCC(=O)c3ccc4c(c3)CN(C(C)C)CC4)CC2)cc1 | 78 to 80
7 | CCCC[C@H](NC(=O)[C@H](CC(C)C)NC(=O)COc1ccc(F)cc1)C(=O)CSCc1ccco1 | 88 to 91
8 | COc1cc(C(=O)c2ccc(OC)c(OC)c2OC)cc(OC)c1OC | 125 to 126
9 | CC1(C)Cc2nc(C3CCCC3)c(C(=O)c3ccc(C(F)(F)F)cc3)c(-c3ccc(F)c(F)c3)c2C(O[Si](C)(C)C(C)(C)C)C1 (centres undefined) | 128 to 129
10 | [N-]=[N+]=NC(=O)c1ccc(-c2ccc(C(F)(F)F)cc2)s1 | 97
11 | CCCN(CCC)C1CCC2=C(CCCC2=NO)C1 (centres undefined) | 99 to 102
12 | COC(=O)c1ccc(Cc2c[nH]c3ccc(C(=O)OC)cc23)c(OC)c1 | 136 to 138
13 | Nc1ncc(-c2ccc3c(c2)CCC(NCC(F)(F)F)CC3)c(N)n1 (centres undefined) | 154 to 156
14 | C(#Cc1cccs1)c1ccccc1 | 49 to 59
15 | Cc1cc(NC(=O)c2cc(F)cc(N(C3CN(C(c4ccc(Cl)cc4)c4ccc(Cl)cc4)C3)S(C)(=O)=O)c2)no1 | 222 to 224
16 | CN1CCn2nc(Nc3cc(Cl)nn(C)c3=O)cc2C1 | 175 to 176
17 | Cc1cccc(NC(=O)OCC2CCCCN2C)c1 (centres undefined) | 73.5 to 75.5
18 | COC(=O)CCCc1cc2nc(Cl)ccc2n1S(=O)(=O)c1ccc(C(C)(C)C)cc1 | 107
19 | Oc1ccccc1-c1nc(-c2ccc(-c3ccccc3)cc2)nc(-c2ccc3ccccc3c2)n1 | 227 to 239
20 | CC(C)N1CCOC(CN2C(=O)C3(COc4cc5c(cc43)OCCO5)c3ccccc32)C1 (centres undefined) | 102 to 125
21 | CC(=O)c1ccc(OCc2ccccc2)c(CS(C)(=O)=O)c1 | 94 to 97
22 | Cc1ccccc1NC(=O)Nc1ccc(NC(=O)C(CC(=O)Nc2ccc(C(=O)O)cc2)c2ccccc2)cc1 (centres undefined) | 169
23 | O=C(O)CC1(c2cccc(Cl)c2)CNC(=O)C1 (centres undefined) | 178 to 181
24 | CCOCc1nc2c(N)nc3c(c2n1CCCCS(=O)(=O)N(C)C)CCCC3 | 165 to 167
25 | CN1CC[C@@H](c2c(O)cc(O)c3c(=O)cc(-c4ccccc4I)oc23)[C@@H]1CO | 233 to 235

Row | SMILES | melting point [°C]
26 | CCN1C(=S)NNC1c1ccccc1NC(C)=O (centres undefined) | 193 to 194
27 | CN(C)Cc1c[nH]c2ncccc12 | 161 to 162
28 | COC(=O)C1=C(C)NC(C)=C(Cl)C1c1ccccc1 (centres undefined) | 147
29 | COC(=O)c1ccc(OCCNC(=O)C2Cc3ccccc3N2S(=O)(=O)c2ccc(-c3cccc(C(F)(F)F)c3)cc2)c(C)c1 (centres undefined) | 68 to 74
30 | CC(CCN1CCN(c2ccc(F)cc2)CC1)N1c2cccc3cccc(c23)S1(=O)=O (centres undefined) | 116
31 | Fc1ccc(Nc2ncnc3cnc(NC4CCC(N5CCOCC5)CC4)nc23)cc1Cl (centres undefined) | 233 to 235
32 | CC(=O)Oc1ccc2c(c1)C[C@H]1CCCN(C(C)=O)[C@H]1C2 (relative stereo) | 108 to 113
33 | O=C1NCCN1Cc1c(Cl)cccc1Cl | 156 to 158
34 | NC(=O)c1cccc(OCCCCCCCc2ccsc2)c1 | 97 to 100
35 | O=C(CC1c2ccccc2C(=O)N1c1ccc2ccc(Cl)nc2n1)N1CCC2(CC1)OCCO2 (centres undefined) | 238 to 239
36 | CCC(=O)C1=C(O)CC(c2c(C)cc(C)cc2C)CC1=O (centres undefined) | 86 to 88
37 | CC(C)(C)c1cc(C(=O)NCCc2ccc([N+](=O)[O-])cc2)cc(C(C)(C)C)c1O | 204 to 206
38 | CCOC(=O)C1=C(CSC(C)=O)NC=C(C(=O)OC)C1c1cccc(Cl)c1Cl (single isomer, unassigned; (-)) | 155 to 157
39 | COc1ccc(CCNC(=O)N(C)O)cc1OC | 103 to 104
40 | O=C(Nc1ccc(Oc2ccnc(N3CCC4(CC3)OCCO4)n2)c2ccccc12)c1cc(F)cc(N2CCCCC2)c1 | 195 to 196
41 | O=C(O)[C@H](Cc1ccccc1)NS(=O)(=O)N1CCOCC1 | 157 to 158
42 | O=C(NCC(F)(F)F)C1(CCCCc2ccc(NS(=O)(=O)c3ccc([N+](=O)[O-])cc3)cc2)c2ccccc2-c2ccccc21 | 136 to 138
43 | Cc1ccc(C2c3c(C)c(N4CCN(c5ccc(C#N)cc5)CC4)c(C)c(C)c3OC2(C)C)cc1 (centres undefined) | 216 to 217
44 | COCC(=O)N[C@H]1c2ccccc2C[C@@H]1C | 78 to 79
45 | CC(=O)c1ccc(-c2cc(N3CCCCC3)c(C#N)c3c2-c2ccccc2C3)cc1 | 182 to 184
46 | CCOC(=O)C(C)(C(C)=O)c1ccc(N)c(NC)c1C#N (centres undefined) | 118 to 123
47 | Cc1ccc(Nc2c3ccccc3nc3ccccc23)cc1[N+](=O)[O-] | > 280
48 | Cc1c(C)c2c(c(C)c1O)SC(c1ccccc1O)O2 (centres undefined) | 175 to 176
49 | Clc1cc(C2CO2)cc(OCc2ccccc2)c1OCc1ccccc1 (centres undefined) | 154 to 159
